Measurements: patent US4933349A, “Treating agent for heart failure” (Daiichi Seiyaku Co., Ltd., priority 1987, dated 1990)
“Also recorded” adds a separate entry of the source. Counter-ions that a name gives are not always drawn.

Experiments:
rats = assay: Acute toxicity in rats (LD50), oral or intravenous; type: in vivo
From the text: Acute toxicities of Compound A in rats through oral administration or intravenous injection were as follows.

[1] = tested on: Heart Failure induced by Myocardial Infarction; assay: Efficacy in heart failure induced by myocardial infarction (left coronary artery ligation), hemodynamic measurements and ventricle weight; type: in vivo, SD-SLC male rats
Method: Efficacy in Heart Failure induced by Myocardial Infarction SD-SLC male rats (body weight: 272 to 315 g) (purchased from Shizuoka Jikken Dobutsu Kyodo Kumiai) were used as test animals. Intercostal thoracotomy was made on the left chest of the rat anesthesized with pentobarbital (50 mg/kg, i.p.). The left coronary artery was then ligated at the position 2 to 3 mm away from its origin according to the method of Selye et al, Angiology, Vol. 11, 398 (1960). Immediately after confirming that the peripheral cardiac muscle of the open chest rat was involved in ischemia, the opening was closed, and the animal was fed on food and tap water ad lib. As a sham operation group, another group of rats received thoracotomy in the same manner as described above except for carrying out no ligation of the coronary artery. […] A control group orally received 5 ml/kg/day of ion-exchanged water only. On the next day of the final administration of Compound A, a catheter was inserted into the femoral artery and the left ventricle of the rat under anesthesia with Inactin (100 mg/kg, i.p.), and systemic mean blood pressure, maximum rate of increase of the intraventricular pressure (LV dp/dt max), contractile index (LV dp/dt max/p), left ventricular systolic pressure, left ventricular diastolic pressure and heart rate were measured. After completion of these measurements, the heart was excised and divided into the left ventricle (including the septum) and the right ventricle. The wet weight of each ventricle was measured.

[2] = tested on: Monocrotaline-Induced Heart Failure Model (Heart Failure induced by Pulmonary Hypertension); assay: Efficacy in Monocrotaline-induced heart failure model (heart failure induced by pulmonary hypertension); type: in vivo, SD-SLC male rats
Method: Efficacy in Monocrotaline-Induced Heart Failure Model (A Model of Heart Failure induced by Pulmonary Hypertension)
SD-SLC male rats (body weight: 160 to 190 g) were used. Monocrotaline was dissolved in 1N hydrochloric acid, and the solution was adjusted to a pH of 7.4 with a 1N sodium hydroxide aqueous solution. Distilled water was added thereto to make a 40 mg/ml solution. The solution was subcutaneously administered to the rats at a dose of 40 mg/kg to prepare right ventricular insufficient rats.
Another group of rats was subcutaneously administered with 1 ml/kg of physiological saline only and served as intact control.
Compound A was dissolved in distilled water. Six hours from the administration of Monocrotaline, the solution was orally administered to the test animals at a single daily dose of 10 mg/kg for consecutive 1 month (6 days per week). As a control group, the right ventricular insufficient rats orally received 5 ml/kg of distilled water only.
On the next day of the final administration of Compound A, a catheter was inserted into the right ventricle under anesthesia with pentobarbital (50 mg/kg, i.p.), and the right ventricular systolic pressure was measured. Thereafter, the heart was excised, divided into the left ventricle (including the septum) and the right ventricle, and the wet weight of each ventricle was determined. The results obtained are given in Table 3, as expressed as mean±S.E.

[3] = 10 mg/kg p.o. daily, 6 times per week, 1 month, mean±S.E., n = 7
[4] = 10 mg/kg p.o. daily, 6 times per week, 1 month, mean±S.E., n = 7, ** P < 0.01 vs sham, # P < 0.05 vs control group
[5] = coronary artery ligation, 1 month
[6] = wet weight after 10 mg/kg p.o. daily, 1 month, mean±S.E., n = 7, * P < 0.05 vs control group

`O=C(O)c1ccc2c(c1)CCC(Cn1ccnc1)C2` (stereo not shown) [Compound A, 6-(1-Imidazolylmethyl)-5,6,7,8-tetrahydronaphthalene-2-carboxylic acid hydrochloride hemihydrate] showed an LD50 (rats; female rats, i.v.) of 783 mg, an LD50 (rats; female rats, p.o.) of 1994 mg and an LD50 (rats; male rats, i.v.) of 807 mg. For the same compound, the LD50 (rats; male rats, p.o.) was 2438 mg, the “Heart Rate” value [1, 3] was 399 ± 14 min⁻¹ and the “Mean Blood Pressure” value [1, 3] was 132 ± 5 mmHg. For the same compound, the “Left Ventricular Systolic Pressure” value ([1]; 10 mg/kg p.o. daily, 6 times per week, 1 month, mean±S.E., n = 7, * P < 0.05 vs sham operation group) was 143 ± 6 mmHg, the “Contractile Index (LV dp/dt max/p)” value [1, 4] was 79 ± 5 s⁻¹ and the “Left Ventricular Diastolic Pressure” value [1, 4] was 12.0 ± 3.2 cmH2 O. The “Contractile index (result in words)” value [1, 5] was “inhibition on reduction of contractile index”, the “Left ventricular diastolic pressure (result in words)” value [1, 5] was “inhibition on reduction of contractile index and on elevation of left ventricular diastolic pressure was observed” and the “Ventricle weight / cardiac hypertrophy (result in words)” value ([1]; coronary artery ligation, 1 month, hydrochloride hemihydrate) was “increase of the ventricle weight can be suppressed significantly; also recorded: inhibit cardiac hypertrophy”. For the same compound, the “Blood pressure (result in words)” value ([1]; long-term administration) was “without adversely affecting the blood pressure”, the “Cardiac contractility and pressure load to the heart (result in words)” value ([1]; long-term administration) was “improved reduction of cardiac contractility and relieved pressure load to the heart” and the “Weight of Ventricle, Right” value ([1]; wet weight after 10 mg/kg p.o. daily, 1 month, mean±S.E., n = 7) was 0.361 ± 0.028 g. For the same compound, the “Weight of Ventricle, Left” value [1, 6] was 0.861 ± 0.029 g, the “Weight of Ventricle, Total” value [1, 6] was 1.222 ± 0.052 g and the “Right Ventricular Systolic Pressure” value ([2]; 10 mg/kg p.o. daily, 6 days per week, 1 month, mean±S.E., N = 7, * P < 0.05 vs intact control, # P < 0.05 vs control group) was 46.9 ± 4.9 mmHg. For the same compound, the “Right Ventricle Weight/Left Ventricle Weight” value ([2]; 10 mg/kg p.o. daily, 6 days per week, 1 month, mean±S.E., N = 7, ** P < 0.01 vs intact control group) was 0.41 ± 0.04, the “Right ventricular hypertrophy / cardiac hypertrophy (result in words)” value ([2]; Monocrotaline, 1 month) was “showed a tendency to inhibit the right ventricular hypertrophy” and the “Right ventricular systolic pressure (result in words)” value ([2]; Monocrotaline, 1 month) was “significantly inhibited the increase in the right ventricular systolic pressure”. The “Improvement of heart failure induced by pulmonary hypertension (result in words)” value ([2]; long-term administration) was “exhibited improvements of heart failure induced by pulmonary hypertension”.
